Measurements from US20220267310A1, “QUINAZOLINE AND CINNOLINE DERIVATIVES AS DNA-PK INHIBITOR” (MEDSHINE DISCOVERY INC., priority 2019, published 2022).

Biological target: T1, DNA-PK (h) (Homo sapiens, UniProt P78527)
T1 construct: Eurofins Pharma Discovery Service (contract assay)
Experiment: DNA-PK kinase inhibitory activity (HTRF, Eurofins)
Format: biochemical
Settings: ATP: 10 μM
Method: This experiment was tested at Eurofins Pharma Discovery Service, Reaction Biology Corp. (RBC)
[…] DNA-PK: Mg/ATP; GST-cMyc-p53; EDTA; Ser15 antibody; ATP: 10 μM; biotinylated phosphatidylinositol-3,4,5-triphosphate; GST label GRP1 PH domain; streptavidin and phycocyanin; europium-labelled monoclonal antibody against GST.
DNA-PK (h) was incubated in a determination buffer containing 50 nM GST-cMyc-p53 and Mg/ATP (density as required). The reaction was initiated by adding a mixture of Mg/ATP. After incubating at room temperature for 30 min, a termination solution containing EDTA was added to terminate the reaction. Finally, a detection buffer (containing labeled anti-GST monoclonal antibody and europium-labeled anti-phosphate Ser15 antibody against phosphorylated p53) was added. Then, the board was read in time-resolved fluorescence mode, and a Homogeneous Time Resolved Fluorescence (HTRF) signal was measured according to the formula HTRF=10000×(Em665 nm/Em620 nm).

Row | SMILES | IC50 [nM]
1 | COc1ccc(C(O)c2cc(-c3ccnc4cc(N5CCOCC5)ccc34)c(F)cc2Cl)nn1 (single isomer, unassigned) [Embodiment 1] | 82
2 | COc1ccc(C(O)c2cc(-c3cnnc4cc(N5CCOCC5)ccc34)c(F)cc2Cl)nn1 (single isomer, unassigned) [Embodiment 4] | 587
3 | COc1ccc(C(O)c2cc(-c3ccnc4c(Cl)c(N5CCOCC5)ccc34)c(F)cc2Cl)nn1 (single isomer, unassigned) [Embodiment 5] | 307
4 | COc1ccc(C(O)c2cc(-c3ccnc4c(Cl)c(N5CCOCC5)ccc34)c(F)cc2Cl)nn1 (single isomer, unassigned) [Embodiment 6] | 8
5 | COc1ccc(C(O)c2cc(-c3cnnc4c(F)c(N5CCOCC5)ccc34)c(F)cc2Cl)nn1 (single isomer, unassigned) [Embodiment 8] | 138
6 | COc1ccc(C(O)c2cc(-c3cc(N)nc4c(F)c(N5CCOCC5)ccc34)c(F)cc2Cl)nn1 (single isomer, unassigned) [Embodiment 9] | 840
7 | COc1ccc(C(O)c2cc(-c3cc(N)nc4c(F)c(N5CCOCC5)ccc34)c(F)cc2Cl)nn1 (single isomer, unassigned) [Embodiment 10] | 0.5
8 | COc1ccc(C(O)c2cc(-c3cc(N)nc4cc(N5CCOCC5)ccc34)c(F)cc2Cl)nn1 (single isomer, unassigned) [Embodiment 12] | 657

Further lines, results first:

Row | IC50 [nM] | SMILES
9 | 2.7 | COc1ccc(C(O)c2cc(-c3cc(N)nc4cc(N5CCOCC5)cc(F)c34)c(F)cc2Cl)nn1 (single isomer, unassigned) [Embodiment 14]
10 | 71 | COc1ccc(C(O)c2cc(-c3cc(C(F)F)nc4cc(N5CCOCC5)ccc34)c(F)cc2Cl)nn1 (single isomer, unassigned) [Embodiment 15]
11 | 4250 | COc1ccc(C(O)c2cc(-c3cc(C(F)F)nc4cc(N5CCOCC5)ccc34)c(F)cc2Cl)nn1 (single isomer, unassigned) [Embodiment 16]
12 | 33 | Cc1nccnc1C(O)c1cc(-c2cnnc3c(F)c(N4CCOCC4)cc(F)c23)c(F)cc1Cl (single isomer, unassigned) [Embodiment 18]
